{
  "source": "patent US9732156B2",
  "about": "“Methods of treating rheumatoid arthritis using antibodies to matrix metalloproteinase 9” (Gilead Biologics, Inc., priority 2012, dated 2017)",
  "key": {"Lewis rats": {"test_system": "Lewis rats", "conditions": "rat, in vivo", "description": "AB0041 was evaluated for safety in Lewis rats in comparison to the pan-MMP inhibitor, Marimastat, in a 28-day study.\nSix rats per group were intravenously administered twice per week with either AB0041 at 50 mg/kg or Vehicle-A (10 mM sodium phosphate, pH 6.5, 140 mM sodium chloride, 0.01% Tween20). In addition, six rats per group were treated with Marimastat or Vehicle-M (50% DMSO/50% water) through a surgically implanted subcutaneous Alzet pump (Alzet, Cupertino, Calif.), which delivered at a rate of 2.5 μl/hour for a period of 28 days. The Marimastat release rate was between 6.8 to 5.7 mg/kg/day.\nAnimals were observed and scored daily for signs of MSS, such as reluctance to move and avoidance of the use of the hind feet. The following system was used to score resting posture, gait and willingness to move: resting posture was scored as 0 (normal), 1 (resting on one foot) or 2 (resting on neither one foot nor two feet). Gait was scored as either 0 (normal), 1 (avoids use of one hind foot) or 2 (avoids use of both hind feet). Willingness-to-move upon stimulation was scored as either 0 (normal movement), 1 (somewhat reluctant to move), 2 (moderately reluctant to move) or 3 (very reluctant to move). In addition, the body weights were recorded twice weekly.\nTotal scores were calculated as the sum of gait score, resting posture score and willingness-to-move score for each animal. Mean total scores per group were calculated as the average of the total scores from all individual animals per group per day.\nSerum was collected from all rats on one day before and days 1, 7, 10, 14, 17, 21, 24, 28 post administration. Serum was centrifuged at 10,000×g for 10 minutes and collected for storage at −20° C. Serum was subject to multianalyte serum protein analysis (RodentMAPv2.0, IDEXX Laboratories).\nTissues and limbs from the rats were harvested and fixed in 10% neutral buffered formalin for histopathologic analysis using hematoxylin and eosin (H&E)."}, "[1]": {"test_system": "collagen-induced arthritis", "assay": "Collagen-induced arthritis (CIA) rat model of established disease", "type": "in vivo", "conditions": "terminal serum, ELISA", "experimental": "This example provides additional characterizations of the animals in example 7 that were treated with either vehicle, AB0041 (in the rat model) or AB0046 (in the mouse model) at 2, 10, or 50 mg/Kg, Enbrel at 10 mg/Kg, or methotrexate (MTX) at 0.5 mg/Kg.\nIn addition to clinical scoring in Table 6 that was conducted in example 7, paw swelling, ankle diameter and body weights of the treated animals were measured. The measurements were conducted once a week before randomization and three times a week thereafter.\nIn addition, hind limbs were examined microscopically for soft-tissue changes (edema, tissue/vessel necrosis, inflammatory cell infiltration, and fibroplasias) and cartilage and bone changes (cartilage erosion, bone erosion, periosteal bone formation, synovitis, pannus formation, and joint destruction). […] The severity scores were based on global changes in each limb.\nFor anti-TNF-alpha scoring, the entire region of the limb anterior to the tarsal-metatarsal joint was scored. Anti-CD68 staining was evaluated using 3-4 images per limb of synovial membranes in the joints formed by the talus bone, with the scores of each membrane averaged and the value assigned as the overall inflammation score. […] Also, MMP9-expressing cells were identified as osteoclasts and cells of the monocyte/macrophage lineage.\nFurther, serum panel analyses of terminal serum samples were characterized using ELISA. […] AB0046 titers were measured in terminal serum samples."}, "DSS-induced colitis": {"test_system": "DSS-induced colitis", "assay": "DSS-induced colitis model, treatment of established disease (Example 4)", "type": "in vivo, mouse", "text": "The dextran sodium sulfate (DSS)-induced model of colitis is an accepted model for evaluation of inflammatory bowel disease therapeutics. In this model, oral administration of DSS to mice or rats results in damage to the colonic mucosa. Animals receiving DSS develop bloody diarrhea and lose weight. The inflammation and tissue degradation observed in this model is restricted to the mucosa and generally affects the entire colon. […] The localization of disease and the pathology observed in this model is considered to be reminiscent of human ulcerative colitis (UC), including similar inflammatory cell infiltrate, ulceration, and crypt abscesses.\nAB0046 was used in the DSS colitis model (in a 14-day treatment model). Treatment began after 5 days of oral exposure to 3% DSS in drinking water, according to the following experimental design: disease induction with 3% DSS was carried out beginning at day 0 through day 5, with treatment beginning at day 6 (treatment details for animals in groups 1-5 given in Table 2, below); animals were sacrificed at day 14. Etanercept (marketed under the trade name ENBREL®) was used as a reference compound for the therapeutic effect of anti-TNFα therapy in this model. AC-1, an irrelevant antibody of matched isotype (IgG1), was used as a control.\nThe course of disease was evaluated by video endoscopy (at days 6, 10, and 14), animal weight measurements, observation of stool consistency, and post-study histopathology analysis of colons.\nVideo endoscopy of the lower colon was performed in a blinded fashion using a small animal endoscope; colitis was scored visually on a scale of 1-4 based on the degree of ulceration, friability, and vascularity present in the tissue. Each mouse was assigned a single score corresponding to the most severe damage observed throughout the entire length of the colon examined.\nAt study termination, the majority of the distal colon was excised from each animal, formalin-fixed, then embedded in paraffin and sectioned for histology. Slides were stained with hematoxylin and eosin and examined by a board-certified veterinary pathologist blinded as to treatment groups. Tissues were scored for inflammation, edema, and mucosal necrosis according to the scoring scale of 1-4 for each parameter. Sum pathology scores were calculated by summing the three individual parameter score means (inflammation, edema and necrosis).\nBody weight and the incidence of diarrhea were recorded daily over the course of the study. The evaluation of body weight changes was performed by calculating the area under the curve (AUC) with the trapezoidal rule method; a similar calculation of AUC for stool consistency was performed by assigning incidence of diarrhea a score of 100 and lack of diarrhea a score of 0.\nA trend for reduction of systemic disease-associated cytokines by AB0046 was observed. […] Serum MMP-9 levels were not induced (i.e., no difference between no DSS and vehicle groups; interference by drug antibody cannot be ruled out for MMP9 serum level measurements)."}, "UC": {"test_system": "UC", "conditions": "cited from earlier work"}},
  "data": [
    {"compound": "CNC(=O)[C@@H](NC(=O)[C@H](CC(C)C)[C@H](O)C(=O)NO)C(C)(C)C", "note": "[Marimastat]", "values": [
      {"measurement": "average daily total MSS score", "setting": "Lewis rats; Lewis, 18 day", "value": "above 4.0"},
      {"measurement": "average MSS score", "setting": "Lewis rats; Lewis, 25 day", "value": 5.8},
      {"measurement": "H&E staining of hind knee joints", "setting": "Lewis rats", "value": "histopathological evidence of fibroplasia was seen"},
      {"measurement": "fibrosis and synovitis in limbs", "setting": "Lewis rats", "value": "Fibrosis and synovitis were observed"},
      {"measurement": "rats with slight limping, avoidance of one hind foot (gait score=1)", "setting": "Lewis rats", "value": "five"},
      {"measurement": "severity of fibrosis", "setting": "Lewis rats", "value": "mild to severe"},
      {"measurement": "severity of synovitis", "setting": "Lewis rats", "value": "mild"}
    ]},
    {"compound": "CN(Cc1cnc2nc(N)nc(N)c2n1)c1ccc(C(=O)N[C@@H](CCC(=O)O)C(=O)O)cc1", "note": "[methotrexate, reference compound]", "values": [
      {"measurement": "serum markers (TIMP-1, GM-CSF, MIP-2, MIP-1β, M-CSF-1, OSM, CXCL10, MCP-5, IL-12p70, INF-γ, IL-12, IL-7)", "setting": "[1]", "value": "consistent increase in these markers"}
    ]},
    {"compound": "ENBREL [reference compound]", "values": [
      {"measurement": "serum markers (TIMP-1, GM-CSF, MIP-2, MIP-1β, M-CSF-1, OSM, CXCL10, MCP-5, IL-12p70, INF-γ, IL-12, IL-7)", "setting": "[1]", "value": "No reduction of serum markers"},
      {"measurement": "reduction of the incidence of diarrhea", "setting": "DSS-induced colitis; AUC, did not reach statistical significance", "value": "similar"},
      {"measurement": "mean endoscopy score", "setting": "DSS-induced colitis; Day 14 (and Day 10), vs Vehicle and AC-1, AB0046 30 mg/kg IP, ENBREL 10 mg/kg IP", "value": "significant improvement in endoscopy scores"},
      {"measurement": "histopathology: inflammation, edema, mucosal necrosis", "setting": "DSS-induced colitis; colons at termination, compared to vehicle", "value": "significantly reduced all three aspects of disease pathology"},
      {"measurement": "MMP9 expression in colon by IHC", "setting": "DSS-induced colitis; three colons per group", "value": "Reduction of MMP9"}
    ]},
    {"compound": "Infliximab: chimeric therapeutic anti-TNF-alpha antibody Remicade (infliximab)", "values": [
      {"measurement": "patients achieving long-term remission completely free of corticosteroids", "setting": "UC", "value": 26, "unit": "%"},
      {"measurement": "patients achieving remission by week 8 and remaining in remission through 54 weeks", "setting": "UC", "value": 20, "unit": "%"},
      {"measurement": "patients failing to maintain response over 30 or 54 weeks", "setting": "UC", "value": "approximately 60%"}
    ]}
  ]
}
